Source: article PMC8518114, “Safety, tolerability and pharmacokinetics of emodepside, a potential novel treatment for onchocerciasis (river blindness), in healthy male subjects” (British Journal of Clinical Pharmacology, 2021)

System: healthy male subjects
Assay: Safety: treatment-emergent adverse events, SAD study
Format: in vivo, human
Procedure: Safety was assessed by monitoring adverse events (AEs) throughout the studies that were coded using the standard Medical Dictionary for Regulatory Activities (MedDRA) dictionary (versions 19.0 [SAD part 1], 20.0 [SAD part 2] and 21.1 [MAD]). Other safety monitoring included 12‐lead electrocardiography recordings, measurement of vital signs (systolic and diastolic blood pressure and heart rate), physical and neurological (Hamilton depression rating scale[17] and Beck depression inventory‐II fastscreen[18] [SAD only], mental status examination, cranial nerves assessment and motor system examination, sensation to light touch, coordination/cerebellar function assessment, Romberg's test, gait test, daytime sleepiness assessment [SAD and MAD studies]) examinations, haematology, biochemistry and urinalysis. To minimise risks in the SAD and MAD studies, subjects were dosed sequentially using sentinels in each cohort (1 IP, 1 placebo) as per European Medicines Agency guidelines.[19] If the previous dose was well tolerated, with no safety concerns, dose escalation was decided by the Safety Review Group after reviewing safety and PK data from all available cohorts. Moreover, treatment with the highest dose in the SAD study was repeated (cohort 10) for regular ophthalmological evaluations (assessments available as supplementary information) to better characterise visual AEs observed in the SAD study. Regular ophthalmological assessments were also performed in the MAD study.

[1] = SAD Part 2, 10 mg LSF (fed) n = 6
[2] = SAD Part 2, 40 mg LSF (fasting) n = 6

CC(C)C[C@H]1C(=O)O[C@H](Cc2ccc(N3CCOCC3)cc2)C(=O)N(C)[C@@H](CC(C)C)C(=O)O[C@H](C)C(=O)N(C)[C@@H](CC(C)C)C(=O)O[C@H](Cc2ccc(N3CCOCC3)cc2)C(=O)N(C)[C@@H](CC(C)C)C(=O)O[C@H](C)C(=O)N1C [emodepside]
5 (83.3) n (%): Any TEAE (SAD Part 1, 10 mg LSF n = 6) | Any TEAE (SAD Part 1, 40 mg LSF n = 6) | TEAE: Eye disorders (SAD Part 1, 40 mg LSF n = 6) | Any TEAE [2] | TEAE: Eye disorders [2]
3 (50.0) n (%): Any TEAE (SAD Part 1, 5 mg LSF n = 6) | Any TEAE (SAD Part 1, 20 mg LSF n = 6) | TEAE: Nervous system disorders (SAD Part 1, 40 mg LSF n = 6) | Any TEAE [1] | TEAE: Gastrointestinal disorders [2] | TEAE: General disorders and administration site disorders [2]
0 n (%): TEAE: Eye disorders (SAD Part 1, 0.1 mg LSF n = 1) | TEAE: Gastrointestinal disorders (SAD Part 1, 0.1 mg LSF n = 1) | TEAE: General disorders and administration site disorders (SAD Part 1, 0.1 mg LSF n = 1) | TEAE: Injury, poisoning and procedural complications (SAD Part 1, 0.1 mg LSF n = 1) | TEAE: Musculoskeletal and connective tissue disorders (SAD Part 1, 0.1 mg LSF n = 1) | TEAE: Nervous system disorders (SAD Part 1, 0.1 mg LSF n = 1) | TEAE: Psychiatric disorders (SAD Part 1, 0.1 mg LSF n = 1) | TEAE: Respiratory, thoracic and mediastinal disorders (SAD Part 1, 0.1 mg LSF n = 1) | TEAE: Eye disorders (SAD Part 1, 1 mg LSF n = 5) | TEAE: Gastrointestinal disorders (SAD Part 1, 1 mg LSF n = 5) | TEAE: General disorders and administration site disorders (SAD Part 1, 1 mg LSF n = 5) | TEAE: Infections and infestations (SAD Part 1, 1 mg LSF n = 5) | TEAE: Injury, poisoning and procedural complications (SAD Part 1, 1 mg LSF n = 5) | TEAE: Psychiatric disorders (SAD Part 1, 1 mg LSF n = 5) | TEAE: Respiratory, thoracic and mediastinal disorders (SAD Part 1, 1 mg LSF n = 5) | Any TEAE (SAD Part 1, 2.5 mg LSF n = 6) | TEAE: Eye disorders (SAD Part 1, 2.5 mg LSF n = 6) | TEAE: Gastrointestinal disorders (SAD Part 1, 2.5 mg LSF n = 6) | TEAE: General disorders and administration site disorders (SAD Part 1, 2.5 mg LSF n = 6) | TEAE: Infections and infestations (SAD Part 1, 2.5 mg LSF n = 6) | TEAE: Injury, poisoning and procedural complications (SAD Part 1, 2.5 mg LSF n = 6) | TEAE: Musculoskeletal and connective tissue disorders (SAD Part 1, 2.5 mg LSF n = 6) | TEAE: Nervous system disorders (SAD Part 1, 2.5 mg LSF n = 6) | TEAE: Psychiatric disorders (SAD Part 1, 2.5 mg LSF n = 6) | TEAE: Respiratory, thoracic and mediastinal disorders (SAD Part 1, 2.5 mg LSF n = 6) | TEAE: Gastrointestinal disorders (SAD Part 1, 5 mg IRT n = 5) | TEAE: General disorders and administration site disorders (SAD Part 1, 5 mg IRT n = 5) | TEAE: Infections and infestations (SAD Part 1, 5 mg IRT n = 5) | TEAE: Injury, poisoning and procedural complications (SAD Part 1, 5 mg IRT n = 5) | TEAE: Respiratory, thoracic and mediastinal disorders (SAD Part 1, 5 mg IRT n = 5) | TEAE: Eye disorders (SAD Part 1, 5 mg LSF n = 6) | TEAE: Injury, poisoning and procedural complications (SAD Part 1, 5 mg LSF n = 6) | TEAE: Psychiatric disorders (SAD Part 1, 5 mg LSF n = 6) | TEAE: Respiratory, thoracic and mediastinal disorders (SAD Part 1, 5 mg LSF n = 6) | TEAE: Gastrointestinal disorders (SAD Part 1, 10 mg LSF n = 6) | TEAE: General disorders and administration site disorders (SAD Part 1, 10 mg LSF n = 6) | TEAE: Injury, poisoning and procedural complications (SAD Part 1, 10 mg LSF n = 6) | TEAE: Musculoskeletal and connective tissue disorders (SAD Part 1, 10 mg LSF n = 6) | TEAE: Psychiatric disorders (SAD Part 1, 10 mg LSF n = 6) | TEAE: Eye disorders (SAD Part 1, 20 mg IRT n = 6) | TEAE: General disorders and administration site disorders (SAD Part 1, 20 mg IRT n = 6) | TEAE: Infections and infestations (SAD Part 1, 20 mg IRT n = 6) | TEAE: Injury, poisoning and procedural complications (SAD Part 1, 20 mg IRT n = 6) | TEAE: Psychiatric disorders (SAD Part 1, 20 mg IRT n = 6) | TEAE: Gastrointestinal disorders (SAD Part 1, 20 mg LSF n = 6) | TEAE: General disorders and administration site disorders (SAD Part 1, 20 mg LSF n = 6) | TEAE: Musculoskeletal and connective tissue disorders (SAD Part 1, 20 mg LSF n = 6) | TEAE: Psychiatric disorders (SAD Part 1, 20 mg LSF n = 6) | TEAE: Gastrointestinal disorders (SAD Part 1, 40 mg LSF n = 6) | TEAE: General disorders and administration site disorders (SAD Part 1, 40 mg LSF n = 6) | TEAE: Injury, poisoning and procedural complications (SAD Part 1, 40 mg LSF n = 6) | TEAE: Psychiatric disorders (SAD Part 1, 40 mg LSF n = 6) | TEAE: Respiratory, thoracic and mediastinal disorders (SAD Part 1, 40 mg LSF n = 6) | TEAE: Eye disorders [1] | TEAE: Gastrointestinal disorders [1] | TEAE: General disorders and administration site disorders [1] | TEAE: Infections and infestations [1] | TEAE: Injury, poisoning and procedural complications [1] | TEAE: Musculoskeletal and connective tissue disorders [1] | TEAE: Psychiatric disorders [1] | TEAE: Infections and infestations [2] | TEAE: Injury, poisoning and procedural complications [2]
2 (33.3) n (%): TEAE: General disorders and administration site disorders (SAD Part 1, 5 mg LSF n = 6) | TEAE: Eye disorders (SAD Part 1, 10 mg LSF n = 6) | Any TEAE (SAD Part 1, 20 mg IRT n = 6) | TEAE: Nervous system disorders [1]
1 (20.0) n (%): TEAE: Musculoskeletal and connective tissue disorders (SAD Part 1, 1 mg LSF n = 5) | TEAE: Eye disorders (SAD Part 1, 5 mg IRT n = 5) | TEAE: Musculoskeletal and connective tissue disorders (SAD Part 1, 5 mg IRT n = 5) | TEAE: Nervous system disorders (SAD Part 1, 5 mg IRT n = 5) | TEAE: Psychiatric disorders (SAD Part 1, 5 mg IRT n = 5)
5 subjects: Drug-related visual disorder TEAEs (SAD, 40 mg LSF in the fasting state)
3 (60.0) n (%): Any TEAE (SAD Part 1, 1 mg LSF n = 5) | Any TEAE (SAD Part 1, 5 mg IRT n = 5)
20 to 240 min: Onset of drug-related visual disorder TEAEs post-dose (in vivo)
≤ 24 h: Time to spontaneous resolution of drug-related visual disorder TEAEs (SAD, all mild)
1 (100) n (%): Any TEAE (SAD Part 1, 0.1 mg LSF n = 1) | TEAE: Infections and infestations (SAD Part 1, 0.1 mg LSF n = 1)
1 (16.7) n (%): TEAE: Gastrointestinal disorders (SAD Part 1, 5 mg LSF n = 6) | TEAE: Infections and infestations (SAD Part 1, 5 mg LSF n = 6) | TEAE: Musculoskeletal and connective tissue disorders (SAD Part 1, 5 mg LSF n = 6) | TEAE: Nervous system disorders (SAD Part 1, 5 mg LSF n = 6) | TEAE: Infections and infestations (SAD Part 1, 10 mg LSF n = 6) | TEAE: Nervous system disorders (SAD Part 1, 10 mg LSF n = 6) | TEAE: Respiratory, thoracic and mediastinal disorders (SAD Part 1, 10 mg LSF n = 6) | TEAE: Gastrointestinal disorders (SAD Part 1, 20 mg IRT n = 6) | TEAE: Musculoskeletal and connective tissue disorders (SAD Part 1, 20 mg IRT n = 6) | TEAE: Nervous system disorders (SAD Part 1, 20 mg IRT n = 6) | TEAE: Respiratory, thoracic and mediastinal disorders (SAD Part 1, 20 mg IRT n = 6) | TEAE: Eye disorders (SAD Part 1, 20 mg LSF n = 6) | TEAE: Infections and infestations (SAD Part 1, 20 mg LSF n = 6) | TEAE: Injury, poisoning and procedural complications (SAD Part 1, 20 mg LSF n = 6) | TEAE: Nervous system disorders (SAD Part 1, 20 mg LSF n = 6) | TEAE: Respiratory, thoracic and mediastinal disorders (SAD Part 1, 20 mg LSF n = 6) | TEAE: Infections and infestations (SAD Part 1, 40 mg LSF n = 6) | TEAE: Musculoskeletal and connective tissue disorders (SAD Part 1, 40 mg LSF n = 6) | TEAE: Respiratory, thoracic and mediastinal disorders [1] | TEAE: Musculoskeletal and connective tissue disorders [2] | TEAE: Psychiatric disorders [2] | TEAE: Respiratory, thoracic and mediastinal disorders [2]
4 (66.7) n (%): TEAE: Nervous system disorders [2]
2 (40.0) n (%): TEAE: Nervous system disorders (SAD Part 1, 1 mg LSF n = 5)
1 to 2.5 h: Onset of drug-related visual disorder TEAEs, most often (in vivo)
2 subjects: Drug-related visual disorder TEAEs (SAD, 10 mg LSF in the fasting state)
